# Experimental data reported in ChEMBL document CHEMBL6120994, “Unravelling the potential of natural chelating agents in the control of Staphylococcus aureus and Pseudomonas aeruginosa biofilms” (Eur J Med Chem, 2025).
# The source made the active and inactive calls. The calls are words filed in the database; no cut-off is given here.
# Key:
# Pseudomonas aeruginosa [1] = experiment: Antibiotic adjuvant activity against Pseudomonas aeruginosa ATCC 10145 assessed as potentiation of ciprofloxacin-induced antibacterial activity by measuring ciprofloxacin MIC at 15.6 ug/ml measured after 24 hrs by checkerboard assay (reference value: […] ug/ml); format: functional; conditions: dose 15.6 µg/ml
# Staphylococcus aureus [2] = experiment: Antibiotic adjuvant activity against Staphylococcus aureus CECT 976 assessed as potentiation of tobramycin-induced antibacterial activity by measuring tobramycin MIC at 62.5 ug/ml measured after 24 hrs by checkerboard assay (reference value: 4 ug/ml); format: functional; conditions: dose 62.5 µg/ml
# Pseudomonas aeruginosa [3] = experiment: Antibiotic adjuvant activity against Pseudomonas aeruginosa ATCC 10145 assessed as ciprofloxacin MBC at 15.6 ug/ml measured after 24 hrs in presence of ciprofloxacin by checkerboard assay (reference value: 32 ug/ml); format: functional; conditions: dose 15.6 µg/ml
# Pseudomonas aeruginosa [4] = experiment: Antibiotic adjuvant activity against Pseudomonas aeruginosa ATCC 10145 assessed as fractional inhibitory concentration index (MBC) at 15.6 ug/ml measured after 24 hrs in presence of ciprofloxacin by checkerboard assay; format: functional; conditions: dose 15.6 µg/ml
# Pseudomonas aeruginosa [5] = experiment: Antibiofilm activity against Pseudomonas aeruginosa ATCC 10145 assessed as reduction in biomass production at 1000 ug/ml measured after 24 hrs by crystal violet staining method; format: functional
# Pseudomonas aeruginosa [6] = experiment: Antibiofilm activity against Pseudomonas aeruginosa ATCC 10145 assessed as reduction in metabolic activity of biofilm cells at 1000 ug/ml by resazurin staining based fluorescence analysis; format: functional
# Pseudomonas aeruginosa [7] = experiment: Antibiofilm activity against Pseudomonas aeruginosa ATCC 10145 assessed as reduction in biomass production at 500 ug/ml measured after 24 hrs by crystal violet staining method; format: functional
# Pseudomonas aeruginosa [8] = experiment: Antibiofilm activity against preestablished 24 hr-old Pseudomonas aeruginosa ATCC 10145 assessed as reduction in biofilm cells culturability by measuring log reduction of CFU of biofilm cells at 10XMTC measured after 24 hrs by visual counting method; format: functional
# Staphylococcus aureus [9] = experiment: (§1) Antibiotic adjuvant activity against preestablished 24 hr-old Staphylococcus aureus CECT 976 assessed as potentiation of tobramycin-induced antibiofilm activity by measuring reduction of biomass at 10000 ug/ml measured after 24 hrs in presence of 1/4XMIC tobramycin by crystal violet staining method; format: functional
# Staphylococcus aureus [10] = experiment: Antibiotic adjuvant activity against preestablished 24 hr-old Staphylococcus aureus CECT 976 assessed as potentiation of tobramycin-induced antibiofilm activity by measuring log reduction of CFU of biofilm cells at 10000 ug/ml in presence of 1/4XMIC to MIC tobramycin measured after 24 hrs by visual counting method; format: functional; conditions: dose 10000 µg/ml
# Pseudomonas aeruginosa [11] = experiment: Antibiotic adjuvant activity against preestablished 24-hr old Pseudomonas aeruginosa ATCC 10145 assessed as potentiation of ciprofloxacin-induced antibiofilm activity by measuring reduction of biomass at 1000 ug/ml measured after 24 hrs in presence of 1/8XMIC ciprofloxacin by crystal violet staining method; format: functional, organism-based; conditions: dose 1000.0 µg/ml
# Cell membrane = experiment: Disruption of membrane integrity in pre-established 24 hr-old Staphylococcus aureus CECT 976 biofilm at 10XMTC measured after 24 hrs by SYTO9/PI dye based epifluorescence microscopy; format: subcellular
# Staphylococcus aureus [12] = experiment: Inhibition of virulence production in Staphylococcus aureus CECT 976 biofilms assessed as diameter of lipases halo at 1/2XMTC measured after 48 hrs in presence of 1/4XMIC tobramycin (reference value: 12.3 to 13.5 mm); format: functional
# Staphylococcus aureus [13] = experiment: Inhibition of virulence production in pre-established 24 hr-old Staphylococcus aureus CECT 976 biofilms assessed as diameter of siderophores halo at 1XMTC measured after 48 hrs (reference value: 11.5 to 11.8 mm); format: functional
# [14] = Cytotoxicity against human HepG2 cells assessed as cell mass at 375 to 500 ug/ml measured after 24 hrs by SRB binding assay; format: toxicity, cell-based; conditions: at 375 to 500 µg/mL, dose 375-500 µg/ml, read-out: Activity
# Staphylococcus aureus [15] = experiment: Antibacterial activity against Staphylococcus aureus assessed as inhibition of bacterial growth incubated for 24 hrs by broth microdilution method; format: functional
# Pseudomonas aeruginosa [16] = experiment: Antibacterial activity against Pseudomonas aeruginosa assessed as inhibition of bacterial growth incubated for 24 hrs by broth microdilution method; format: functional
# Staphylococcus aureus [17] = experiment: Antibacterial activity against Staphylococcus aureus assessed as loss of intracellular content at 5000 ug/ml incubated for 4 hrs by transmission electron microscopy; format: functional; conditions: dose 5000 µg/ml
# Pseudomonas aeruginosa [18] = experiment: Antibiotic adjuvant activity against Pseudomonas aeruginosa ATCC 10145 assessed as ciprofloxacin MBC at 125 ug/ml measured after 24 hrs in presence of ciprofloxacin by checkerboard assay (reference value: 32 ug/ml); format: functional; conditions: dose 125 µg/ml
# Pseudomonas aeruginosa [19] = experiment: Antibiotic adjuvant activity against Pseudomonas aeruginosa ATCC 10145 assessed as fractional inhibitory concentration index (MBC) at 125 ug/ml measured after 24 hrs in presence of ciprofloxacin by checkerboard assay; format: functional; conditions: dose 125 µg/ml
# Pseudomonas aeruginosa [20] = experiment: Antibiofilm activity against Pseudomonas aeruginosa ATCC 10145 assessed as reduction in metabolic activity of biofilm cells at 500 to 1000 ug/ml by resazurin staining based fluorescence analysis; format: functional, organism-based; conditions: dose 500-1000 µg/ml
# Staphylococcus aureus [21] = experiment: Antibiotic adjuvant activity against Staphylococcus aureus CECT 976 assessed as fold potentiation of tobramycin-induced antibiofilm activity by measuring reduction in biomass production at 500 ug/ml measured after 24 hrs in presence of 1/4XMIC tobramycin by crystal violet staining method relative to tobramycin treated control; format: functional; conditions: dose 500 µg/ml
# Staphylococcus aureus [22] = experiment: Antibiotic adjuvant activity against Staphylococcus aureus CECT 976 assessed as potentiation of tobramycin-induced antibiofilm activity by measuring reduction of CFU of biofilm cells at 500 ug/ml measured after 24 hrs in presence of 1/2X to 1/8XMIC tobramycin by visual counting method; format: functional; conditions: dose 500 µg/ml
# Staphylococcus aureus [23] = experiment: Antibiofilm activity against preestablished 24 hr-old Staphylococcus aureus CECT 976 assessed as reduction in biofilm cells culturability by measuring log reduction of CFU of biofilm cells at 10XMTC measured after 24 hrs by visual counting method; format: functional
# Staphylococcus aureus [24] = experiment: as §1, with “1/4XMIC to MIC” for “1/4XMIC”; format: functional, organism-based; conditions: dose 10000.0 µg/ml
# HepG2 = experiment: Protection against iron(III)-induced cytotoxicity in human HepG2 cells assessed as cell mass at 250 to 750 ug/ml measured after 24 hrs by SRB binding assay (reference value: 56.2 +/-5.4%); format: functional; conditions: dose 250-750 µg/ml, at 250 to 750 µg/mL
# Staphylococcus aureus [25] = experiment: Antibacterial activity against Staphylococcus aureus ATCC 6538 assessed as inhibition of bacterial growth measured after 24 hrs by broth microdilution method; format: functional
# Escherichia coli = experiment: Antibacterial activity against Escherichia coli BNCC133721 assessed as inhibition of bacterial growth measured after 24 hrs by broth microdilution method; format: functional
# Acinetobacter baumannii = experiment: Antibacterial activity against Acinetobacter baumannii assessed as inhibition of bacterial growth incubated for 16 hrs by broth microdilution method; format: functional
# Pseudomonas aeruginosa [26] = experiment: Antibiofilm activity against Pseudomonas aeruginosa PAK01 biofilm assessed as reduction of bacterial biomass by crystal violet staining based analysis; format: functional
# Pseudomonas aeruginosa [27] = experiment: Antibiofilm activity against Pseudomonas aeruginosa PAO1 biofilm assessed as reduction of bacterial biomass by crystal violet staining based analysis; format: functional
# Staphylococcus aureus [28] = experiment: Antibiofilm activity against Staphylococcus aureus ATCC 6538 assessed as reduction in biomass at 700 ug/ml measured after 48 hrs by crystal violet staining based analysis; format: functional
smiles,measurement,setting,value
Cc1occc(=O)c1O [MALTOL],MIC,Pseudomonas aeruginosa [1],16 µg/mL
same,MIC,Staphylococcus aureus [2],1 µg/mL
same,MBC,Pseudomonas aeruginosa [3],32 µg/mL
same,fractional inhibitory concentration index (FICI),Pseudomonas aeruginosa [4],1
same,inhibition at 1000 µg/mL,Pseudomonas aeruginosa [5],40%
same,inhibition at 1000 µg/mL,Pseudomonas aeruginosa [6],30%
same,inhibition at 500 µg/mL,Pseudomonas aeruginosa [7],< 15%
same,Activity,Pseudomonas aeruginosa [8],3.1 log10CFU/cm^-2
same,inhibition at 10000 µg/mL,Staphylococcus aureus [9],31%
same,Activity,Staphylococcus aureus [10],2 log10CFU/cm^-2
same,Activity,Pseudomonas aeruginosa [11],inactive
same,Activity,Cell membrane,inactive
same,Activity,Staphylococcus aureus [12],2.3 mm
same,Activity,Staphylococcus aureus [13],10 mm
same,viability at 24 h,[14],68%
same,MIC,Staphylococcus aureus [15],4000 µg/mL
same,MIC,Pseudomonas aeruginosa [16],4000 µg/mL
same,Activity,Staphylococcus aureus [17],7.7%
O=c1cc(CO)occ1O [KOJIC ACID],MIC,Pseudomonas aeruginosa [1],16 µg/mL
same,MIC,Staphylococcus aureus [2],1 µg/mL
same,MBC,Pseudomonas aeruginosa [18],32 µg/mL
same,fractional inhibitory concentration index (FICI),Pseudomonas aeruginosa [19],1
same,Activity,Pseudomonas aeruginosa [20],inactive
same,fold change (FC),Staphylococcus aureus [21],2.6
same,Activity,Staphylococcus aureus [22],2 log10CFU/cm^-2
same,Activity,Staphylococcus aureus [23],1.9 log10CFU/cm^-2
same,Activity,Staphylococcus aureus [24],inactive
same,Activity,Pseudomonas aeruginosa [11],inactive
same,Activity,Cell membrane,inactive
same,Activity,Staphylococcus aureus [12],2 mm
same,Activity,Staphylococcus aureus [13],10 mm
same,Activity,HepG2,>61.8%
same,MIC,Staphylococcus aureus [25],1400 µg/mL
same,Activity,Escherichia coli,>1000 µg/mL
same,MIC,Acinetobacter baumannii,3410 µg/mL
same,inhibition (INH),Pseudomonas aeruginosa [26],5%
same,inhibition (INH),Pseudomonas aeruginosa [27],27%
same,inhibition at 700 µg/mL,Staphylococcus aureus [28],40%
